Measured values as given in patent publication US5656449A, “Neutral unsymmetrical cyanine dyes” (Molecular Probes, Inc., priority 1995, dated 1997).
Counter-ions that a name gives are not always drawn.

Legend:
[1] = test system: rat basophilic leukemia (RBL) cells; assay: Rate of dye uptake in live cells; type: cell-based; details: 1 μM-scale dye (3 μL of 1 mM in 3 mL), excited at 490 nm, emission 520 nm; ±~2 sec
Description: Dye uptake data were acquired using rat basophilic leukemia (RBL) cells. A suspension of RBL cells at a concentration of 1×10^6 cells/mL is prepared in room-temperature HEPES-buffered Tyrode's buffer containing 0.1% bovine serum albumin. Three μL of a 1 mM dye solution (in DMSO) is added at T=0 to an acrylic, 1 cm pathlength fluorescence cuvette containing 3 mL of the previously prepared RBL cell suspension. The suspension is then stirred continuously with a Teflon-coated magnetic stir bar. The samples are excited at 490 nm, and the fluorescence emission of the suspension at 520 nm is measured at 200 msec intervals for at least 5 minutes. The T1/2 value represents the time, in seconds, required for the fluorescence of the suspension to reach an intensity half-way between basal fluorescence level and peak fluorescence (±~2 sec).

Saccharomyces cerevisiae = assay: Viability determination of cultured yeast; type: cell-based; details: 1 μM dye, 15 minutes, 490 nm-excited
Description: A culture of Saccharomyces cerevisiae is grown in 75 mL of yeast extract-peptone-dextrose (YPD) broth for 2 weeks at 30° C., shaking at 200 rpm in a capped 250 mL Erlenmeyer flask. A 2 mL sample is taken aseptically each day. One mL of this sample is serially diluted in sterile 2% glucose solution and 0.1 mL plated on YPD agar in standard r 100 mm petri dishes. Yeast numbers in the dilution samples having visible turbidity are quantified using a Petroff-Hauser counting chamber. The other 1 mL of the sample is centrifuged in a microcentrifuge at 5,000 rpm for 5 minutes, and resuspended in 100 μL of 1 μM Dye 509 in 2% sterile dextrose solution. After incubation for 15 minutes with the dye, the sample is diluted to 3 mL and the 490 nm-excited […] fluorescence is measured relative to a series of standard fluorescein solutions spanning a 10,000-fold range in fluorescence.

[2] = test system: Lambda DNA/Hind III fragments; assay: Staining of nucleic acids in electrophoresis gels; details: for detection limit in DNA gel: 1% agarose/TBE minigel, 1 μM dye in 1XTBE, 30 minutes
Description: Two separate 1% agarose/TBE (89 mM tris-borate, 2 mM EDTA) minigels are loaded with Lambda DNA/Hind III fragments in a 3-fold serial dilution series of 1 μg, 333 ng, 111 ng, 37.0 ng, 12.4 ng 4.1 ng, 1.4ng. 0.5 ng, 0.2 ng, and 0.05 ng per lane. After the gels are subjected to electrophoresis, the gels are stained with either Dye 510 or Dye 798, as a 1 μM solution in 1XTBE for 30 minutes.
After staining, each gel is illuminated at 254 nm using an epi-illuminator.Gels are photographed with POLAROID 667 black and white print film, Dye 798 stains the gel with a detection limit of 350 pg/band, while Dye 510 stains the gel with a detection limit of 180 pg/band.

cells = details: background art; cited from earlier work
NIH 3T3 fibroblasts = assay: Discrimination of plasma membrane-compromised fibroblasts; type: cell-based; details: 0.1 or 1.0 μM dye, 5 minutes
Description: NIH 3T3 fibroblasts are grown to 75% confluency on 18 mm^2 glass coverslips under standard tissue culture conditions. Coverslips of 3T3 cells are exposed to 0.0001% to 0.1% saponin in HEPES-buffered complete saline solution (HBSS) for 10 minutes at room temperature and subsequently rinsed into HBSS containing 0.1 or 1.0 μM Dye 4100. After incubation for 5 minutes, coverslips are washed with HBSS and mounted on glass microscope slides using glass coverslips as spacers to avoid crushing the cells. The cell fluorescence is observed in the epi-fluorescence microscope using a 40X 0.85 NA objective lens and a standard rhodamine long-pass filter set (546 nm excitation/580 nm emission).

[3] = illumination at 254 nm, 1 μM dye

CN1C(=Cc2ccnc3ccccc23)Oc2ccccc21 [Dye 799]
T1/2 for cell loading [1]: 2 s

CN1C(=Cc2ccncc2)Sc2ccccc21 [Dye 7101]
T1/2 for cell loading [1]: 7 s

CCN1C(=Cc2cc(Sc3ccccc3)nc3ccccc23)Sc2ccccc21 [Dye 509]
fluorescence at 520 nm with increasing proportion of dead cells (Saccharomyces cerevisiae): increase in fluorescence at 520 nm

CCCCc1cc(C=C2Sc3ccccc3N2CC)c2ccccc2n1 [Dye 1268]
T1/2 for cell loading [1]: 3 s

CN1C(=Cc2ccnc3ccccc23)Sc2ccccc21 [Dye 798, 4-(2,3-dihydro-3-methyl-(benzo-1,3-thiazol-2-yl)-methylidine)-quinolinium tosylate]
detection limit in DNA gel ([2]; illumination at 254 nm): 350 pg/band
background staining of gel [2, 3]: no observable background staining
fluorescence colour of stained DNA-containing bands [2, 3]: blue-green fluorescence
T1/2 for cell loading [1]: 3 s

CN1C(=Cc2cc[n+](C)c3ccccc23)Sc2ccccc21 [Thiazole Orange, reference compound]
limit of detection in DNA gel ([2]; illumination of 254 nm, comparison dye): 1-2 ng/band
staining of cells (cells): readily stains many mammalian cells, yet does not effectively stain some eukaryotic cells
T1/2 for cell loading [1]: 9 s

CCN(CC)c1cc(C=C2Sc3ccccc3N2CC)c2ccccc2n1 [Dye 510]
detection limit in DNA gel ([2]; illumination at 254 nm): 180 pg/band
fluorescence colour of stained DNA-containing bands [2, 3]: blue-green fluorescence

Cc1cc(C=C2Sc3ccccc3N2C)nc2ccccc12 [Dye 523-1]
T1/2 for cell loading [1]: 41 s

CCN1C(=Cc2ccnc3ccccc23)Sc2ccccc21 [Dye 1266]
T1/2 for cell loading [1]: 2 s

CCN1C(=Cc2cc(-c3ccccc3)nc3ccccc23)Sc2ccccc21 [Dye 4100]
staining of cells with compromised plasma membranes (NIH 3T3 fibroblasts; 0.0001% to 0.1% saponin): stain brightly
staining of untreated 3T3 cells (NIH 3T3 fibroblasts): virtually unstained

Cc1cc(C=C2Sc3ccccc3N2C)c2ccccc2n1 [Dye 523-2]
T1/2 for cell loading [1]: 1 s
